Read-outs that look alike come from different tables or passages of the source. Where a SMILES comes first, the peptide text is derived from it.
Columns and labels:
[1] = target: T1, human TPO-R (transfected Ba/F3 cells) (Homo sapiens, UniProt P40238); experiment: Thrombopoietin dependent cell proliferation assay (MTT), TPO-R transfected Ba/F3 cells; type: cell-based
T1 construct: Murine IL-3 dependent Ba/F3 cells were transfected with full length human TPO-R; expressed in transfected cells; host or cells: murine Ba/F3 cells
T1 sequence (P40238 26-635): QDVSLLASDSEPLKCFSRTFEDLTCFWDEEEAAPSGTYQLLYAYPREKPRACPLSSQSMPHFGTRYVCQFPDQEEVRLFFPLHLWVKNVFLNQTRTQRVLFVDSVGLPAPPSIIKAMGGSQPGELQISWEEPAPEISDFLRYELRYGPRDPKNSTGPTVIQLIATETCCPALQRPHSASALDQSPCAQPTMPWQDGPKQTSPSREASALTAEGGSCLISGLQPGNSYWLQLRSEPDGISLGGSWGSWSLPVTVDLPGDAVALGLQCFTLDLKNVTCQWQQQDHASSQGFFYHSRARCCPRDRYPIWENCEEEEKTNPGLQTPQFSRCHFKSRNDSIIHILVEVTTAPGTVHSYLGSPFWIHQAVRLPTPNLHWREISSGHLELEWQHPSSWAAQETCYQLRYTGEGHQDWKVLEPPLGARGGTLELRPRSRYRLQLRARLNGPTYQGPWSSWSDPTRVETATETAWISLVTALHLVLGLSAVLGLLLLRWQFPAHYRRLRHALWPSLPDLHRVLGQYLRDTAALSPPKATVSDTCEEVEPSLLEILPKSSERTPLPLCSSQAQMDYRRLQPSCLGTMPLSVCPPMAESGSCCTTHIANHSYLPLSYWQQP

TPO-R = target: T2, TPO-R (Homo sapiens, UniProt P40238); experiment: Competition binding assay (equilibrium binding ELISA, MBP-TPO156 tracer) on immobilized TPO-R
T2 construct: made in house
T2 sequence (P40238 26-491 limits assumed): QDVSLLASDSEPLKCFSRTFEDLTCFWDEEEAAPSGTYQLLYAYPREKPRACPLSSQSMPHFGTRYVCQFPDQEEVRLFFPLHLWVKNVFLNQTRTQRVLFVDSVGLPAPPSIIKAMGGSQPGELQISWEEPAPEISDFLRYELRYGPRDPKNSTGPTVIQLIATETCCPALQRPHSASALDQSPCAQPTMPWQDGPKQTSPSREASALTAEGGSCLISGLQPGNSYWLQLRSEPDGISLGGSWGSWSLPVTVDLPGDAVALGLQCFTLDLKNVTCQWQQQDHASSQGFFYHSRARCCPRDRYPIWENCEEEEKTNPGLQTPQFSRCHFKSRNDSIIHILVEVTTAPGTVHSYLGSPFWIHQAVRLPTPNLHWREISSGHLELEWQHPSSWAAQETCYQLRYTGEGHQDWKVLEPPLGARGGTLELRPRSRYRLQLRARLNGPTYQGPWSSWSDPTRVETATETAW
Description: A variety of methods can be used to evaluate IC50 values. For example, an equilibrium binding ELISA assay, using either MBP-TPO or lacI-peptide tracer, was used to determine whether the peptides inhibit the binding of TPO to the extracellular domain of the TPO receptor. Typically, the IC50 value were determined using the free peptide. The IC50 value can be determined using the free peptide, which optionally can be C-terminally amidated, or can be prepared as an ester or other carboxy amide.
Binding affinities of chemically synthesized peptides for TPO-R were measured in a competition binding assay. The wells of a microtiter plate were coated with 1 mg streptavidin, blocked with PBS/1% BSA, followed by 50 ng of biotinylated anti-receptor immobilizing antibody (Ab179). The wells were then treated with a 1:10 dilution of soluble TPO-R harvest. Various concentrations of peptide or peptide mimetic were mixed with a constant amount of a truncated form of TPO consisting of residues 1-156 fused to the C-terminus of maltose binding protein (MBP-TPO156). The peptide MBP-TPO156 mixtures were added to the TPO-R coated wells, incubated for 2 hours at 4° C. and then washed with PBS. The amount of MBP-TPO156 that was bound at equilibrium was measured by adding a rabbit anti-sera directed against MBP, followed by alkaline phosphatase conjugated goat anti-rabbit IgG. The amount of alkaline phosphatase in each well was then determined using standard methods.
The assay is conducted over a range of peptide concentrations and the results are graphed such that the y axis represents the amount of bound MBP-TPO156 and the x axis represents the concentration of peptide or peptide mimetic.

[2] = Table 5, substitutions in cyclized compound, read-out: EC50 (nM) Cell Prolif.

Compound	EC50 [1, 2] [nM]	IC50 (TPO-R; Table 5, read-out: IC50) [nM]	also measured
CC[C@H](C)[C@H](NC(C)=O)C(=O)N[C@@H](CCC(=O)O)C(=O)NCC(=O)N1CCC[C@H]1C(=O)N[C@H](C(=O)N[C@@H](CC(C)C)C(=O)N[C@@H](CCCNC(=N)N)C(=O)N[C@@H](CCC(N)=O)C(=O)N[C@@H](Cc1c[nH]c2ccccc12)C(=O)N[C@@H](CC(C)C)C(=O)N[C@@H](C)C(=O)N[C@@H](C)C(=O)N[C@@H](CCCNC(=N)N)C(=O)N[C@@H](C)C(=O)NCCCC[C@H](NC(=O)CCNC(=O)[C@H](C)NC(=O)[C@H](CCCNC(=N)N)NC(=O)[C@H](C)NC(=O)[C@H](C)NC(=O)[C@H](CC(C)C)NC(=O)[C@H](Cc1c[nH]c2ccccc12)NC(=O)[C@H](CCC(N)=O)NC(=O)[C@H](CCCNC(=N)N)NC(=O)[C@H](CC(C)C)NC(=O)[C@@H](NC(=O)[C@@H]1CCCN1C(=O)CNC(=O)[C@H](CCC(=O)O)NC(=O)[C@@H](NC(C)=O)[C@@H](C)CC)[C@@H](C)O)C(N)=O)[C@@H](C)O	–	–	EC50 ([1]; Table 10, truncations of the dimer, read-out: EC50 (nM) Cell Prolif.): < 500 nM
CC[C@H](C)[C@@H]1NC(=O)[C@@H](N)CSSC[C@@H](C(N)=O)NC(=O)[C@H](C)NC(=O)[C@H](CCCNC(=N)N)NC(=O)[C@H](C)NC(=O)[C@H](C)NC(=O)[C@H](CC(C)C)NC(=O)[C@H](Cc2c[nH]c3ccccc23)NC(=O)[C@H](CCC(N)=O)NC(=O)[C@H](CCCNC(=N)N)NC(=O)[C@H](CC(C)C)NC(=O)[C@H]([C@@H](C)O)NC(=O)[C@@H]2CCCN2C(=O)CNC(=O)[C@H](CCC(=O)O)NC1=O (HELM PEPTIDE1{C.I.E.G.P.T.L.R.Q.W.L.A.A.R.A.C.[am]}$PEPTIDE1,PEPTIDE1,1:R3-16:R3$$$V2.0)	–	–	IC50 (TPO-R; Table 9, read-out: IC50): ≤ 500 nM
CC(C)C[C@H](NC(=O)[C@@H](NC(=O)[C@@H]1CCCN1C(=O)CNC(=O)[C@@H](NC(=O)[C@@H](N)Cc1c[nH]cn1)C(C)C)[C@@H](C)O)C(=O)N[C@@H](CCCNC(=N)N)C(=O)N[C@@H](CO)C(=O)NCC(=O)N[C@@H](CSSC[C@H](NC(=O)CNC(=O)[C@H](CO)NC(=O)[C@H](CCCNC(=N)N)NC(=O)[C@H](CC(C)C)NC(=O)[C@@H](NC(=O)[C@@H]1CCCN1C(=O)CNC(=O)[C@@H](NC(=O)[C@@H](N)Cc1c[nH]cn1)C(C)C)[C@@H](C)O)C(N)=O)C(N)=O (HELM PEPTIDE1{H.V.G.P.T.L.R.S.G.C.[am]}|PEPTIDE2{H.V.G.P.T.L.R.S.G.C.[am]}$PEPTIDE1,PEPTIDE2,10:R3-10:R3$$$V2.0)	–	–	EC50 ([1]; Table 7, dimer compounds, read-out: EC50 (nM) Prolif.): < 200000 nM; IC50 (TPO-R; Table 7, dimer compounds, read-out: IC50): ≤ 200000 nM
CC[C@H](C)[C@@H]1NC(=O)[C@H](Cc2c[nH]c3ccccc23)NC(=O)[C@H](CCC(=O)O)NC(=O)[C@H](CCCNC(=N)N)NC(=O)[C@H](CC(C)C)NC(=O)[C@H]([C@@H](C)O)NC(=O)[C@@H]2CCCN2C(=O)CNC(=O)[C@H](CC(=O)O)NC(=O)[C@H](C)NC(=O)[C@@H](NC(=O)CNC(=O)CN)CSSC[C@@H](C(=O)NCC(=O)NCC(=O)O)NC(=O)[C@H](Cc2ccccc2)NC(=O)[C@H](CO)NC1=O [G G C A D G P T L R E W I S F C G G] (HELM PEPTIDE1{G.G.C.A.D.G.P.T.L.R.E.W.I.S.F.C.G.G}$PEPTIDE1,PEPTIDE1,3:R3-16:R3$$$V2.0; N-terminus and C-terminus assumed; bridges inferred)	–	–	IC50 (TPO-R; Table 3, read-out: Affinity (IC50)): ≤ 500 nM
CC(C)C[C@@H]1NC(=O)[C@H](Cc2c[nH]c3ccccc23)NC(=O)[C@H](CCC(=O)O)NC(=O)[C@H](CCCNC(=N)N)NC(=O)[C@H](CC(C)C)NC(=O)[C@H]([C@@H](C)O)NC(=O)[C@@H](NC(=O)CNC(=O)CN)CSSC[C@@H](C(=O)NCC(=O)NCC(=O)O)NC(=O)[C@H](Cc2ccccc2)NC(=O)CNC(=O)CNC(=O)[C@H](Cc2c[nH]cn2)NC1=O [G G C T L R E W L H G G F C G G] (HELM PEPTIDE1{G.G.C.T.L.R.E.W.L.H.G.G.F.C.G.G}$PEPTIDE1,PEPTIDE1,3:R3-14:R3$$$V2.0; N-terminus and C-terminus assumed; bridges inferred)	–	–	IC50 (TPO-R; read-out: IC50 value): ≤ 500 nM
CC[C@H](C)[C@@H]1NC(=O)[C@H](Cc2c[nH]c3ccccc23)NC(=O)[C@H](CCC(=O)O)NC(=O)[C@H](CCCNC(=N)N)NC(=O)[C@H](CC(C)C)NC(=O)[C@H]([C@@H](C)O)NC(=O)[C@@H]2CCCN2C(=O)CNC(=O)[C@H](CC(=O)O)NC(=O)[C@H](C)NC(=O)[C@@H](N)CSSC[C@@H](C(N)=O)NC(=O)[C@H](Cc2ccccc2)NC(=O)[C@H](C)N(C)C1=O [S-(N-Me-Ala)] (HELM PEPTIDE1{C.A.D.G.P.T.L.R.E.W.I.[meA].F.C.[am]}$PEPTIDE1,PEPTIDE1,1:R3-14:R3$$$V2.0; N-terminus and C-terminus assumed)	< 200000	≤ 200000	–

The next lines start with results.

EC50 [1, 2] [nM]	IC50 (TPO-R; Table 5, read-out: IC50) [nM]	Compound	also measured
< 500	≤ 500	CC[C@H](C)[C@@H]1NC(=O)[C@H](Cc2c[nH]c3ccccc23)NC(=O)[C@H](CCC(=O)O)NC(=O)[C@H](CCCNC(=N)N)NC(=O)[C@H](CC(C)C)NC(=O)[C@H]([C@@H](C)O)NC(=O)[C@@H]2CCCN2C(=O)CNC(=O)[C@H](CC(=O)O)NC(=O)[C@H](C)NC(=O)[C@@H](N)CSSC[C@@H](C(N)=O)NC(=O)[C@H](Cc2cccnc2)NC(=O)[C@H](CO)NC1=O [F-(Pyridylala)] (HELM PEPTIDE1{C.A.D.G.P.T.L.R.E.W.I.S.[O=C([C@H](Cc1cccnc1)N[*:1])[*:2]].C.[am]}$PEPTIDE1,PEPTIDE1,1:R3-14:R3$$$V2.0; N-terminus and C-terminus assumed)	–
< 200000	≤ 500	CC[C@H](C)[C@@H]1NC(=O)[C@H](Cc2c[nH]c3ccccc23)NC(=O)[C@H](CCC(=O)O)NC(=O)[C@H](CCCNC(=N)N)NC(=O)[C@H](CC(C)C)NC(=O)[C@H]([C@@H](C)O)NC(=O)[C@@H]2CCCN2C(=O)CNC(=O)[C@H](CC(=O)O)NC(=O)[C@H](C)NC(=O)CSC[C@@H](C(N)=O)NC(=O)CCCCNC1=O [S,F-Ava(thioether)] (HELM PEPTIDE1{[O=C(C[*:3])[*:2]].A.D.G.P.T.L.R.E.W.I.[O=C(CCCCN[*:1])[*:2]].C.[am]}$PEPTIDE1,PEPTIDE1,1:R3-13:R3$$$V2.0; N-terminus and C-terminus assumed)	–
< 200000	≤ 500	CC[C@H](C)[C@@H]1NC(=O)[C@H](Cc2c[nH]c3ccccc23)NC(=O)[C@H](CCC(=O)O)NC(=O)[C@H](CCCNC(=N)N)NC(=O)[C@H](CC(C)C)NC(=O)[C@H]([C@@H](C)O)NC(=O)[C@@H]2CCCN2C(=O)CNC(=O)[C@H](CC(=O)O)NC(=O)[C@H](C)NC(=O)[C@@H](N)CSSC[C@@H](C(N)=O)NC(=O)CCCCNC1=O [S,F-Ava] (HELM PEPTIDE1{C.A.D.G.P.T.L.R.E.W.I.[O=C(CCCCN[*:1])[*:2]].C.[am]}$PEPTIDE1,PEPTIDE1,1:R3-13:R3$$$V2.0; N-terminus and C-terminus assumed)	–
< 500	≤ 500	CC[C@@H]1NC(=O)[C@H]([C@@H](C)CC)NC(=O)[C@H](Cc2c[nH]c3ccccc23)NC(=O)[C@H](CCC(=O)O)NC(=O)[C@H](CCCNC(=N)N)NC(=O)[C@H](CC(C)C)NC(=O)[C@H]([C@@H](C)O)NC(=O)[C@@H]2CCCN2C(=O)CNC(=O)[C@H](CC(=O)O)NC(=O)[C@H](C)NC(=O)[C@@H](N)CSSC[C@@H](C(N)=O)NC(=O)[C@H](Cc2ccccc2)NC1=O [S-Abu] (HELM PEPTIDE1{C.A.D.G.P.T.L.R.E.W.I.[Abu].F.C.[am]}$PEPTIDE1,PEPTIDE1,1:R3-14:R3$$$V2.0; N-terminus and C-terminus assumed)	EC50 ([1]; Table 6, read-out: EC50 (nM) Cell Prolif.): < 500 nM

From patent US8227422B2, “Peptides and compounds that bind to a receptor” (Glaxosmithkline LLC, priority 1996, dated 2012)
